Measured values published in patent US9079843B2, “23-yne-vitamin D3 derivative” (TEIJIN PHARMA LIMITED, priority 2010, dated 2015).
pEC50: −log10 of the molar value.

Experiments:
[1] = test system: osteoporosis model (oophorectomy) rats; test: Bone mineral density-enhancing effect in osteoporosis model (oophorectomy) rats; assay type: in vivo, rat; conditions: OVX rats, 5 times a week for 4 weeks, fourth and fifth lumbar vertebrae
Description: (§1) After 24 hours from the final administration, blood was drawn under ether anesthesia and the rats were put down. Under anesthesia, bone mineral density of the fourth and fifth lumbar vertebrae was measured by using a dual-energy X-ray bone mineral analyzer (QDR-2000; Hologic, Inc.). For comparison, a sham surgery (sham) group (abdominal operation is performed but the ovary is not removed; the test compounds are not administered) and an oophorectomy (OVX) group (subjected to oophorectomy but the test compounds are not administered) were also subjected to measurement of the bone mineral density of lumbar vertebrae at the time of dissection. Further, measurement of calcium concentration in the serum of each group was also performed.

[2] = Serum calcium concentration in osteoporosis model (oophorectomy) rats; conditions: OVX rats; for Serum calcium value: 5 times a week for 4 weeks, 24 hours after final administration
Description: as §1

human VDR = target: T1, human VDR (Homo sapiens, UniProt P11473); test: VDR transcriptional activity in human osteoblast (HOS cells), osteocalcin promoter luciferase reporter; assay type: cell-based; conditions: 24 hours incubation
T1 construct: expressed in transfected cells; host or cells: HOS cells (human osteoblast, ATCC)
T1 sequence (P11473 1-427): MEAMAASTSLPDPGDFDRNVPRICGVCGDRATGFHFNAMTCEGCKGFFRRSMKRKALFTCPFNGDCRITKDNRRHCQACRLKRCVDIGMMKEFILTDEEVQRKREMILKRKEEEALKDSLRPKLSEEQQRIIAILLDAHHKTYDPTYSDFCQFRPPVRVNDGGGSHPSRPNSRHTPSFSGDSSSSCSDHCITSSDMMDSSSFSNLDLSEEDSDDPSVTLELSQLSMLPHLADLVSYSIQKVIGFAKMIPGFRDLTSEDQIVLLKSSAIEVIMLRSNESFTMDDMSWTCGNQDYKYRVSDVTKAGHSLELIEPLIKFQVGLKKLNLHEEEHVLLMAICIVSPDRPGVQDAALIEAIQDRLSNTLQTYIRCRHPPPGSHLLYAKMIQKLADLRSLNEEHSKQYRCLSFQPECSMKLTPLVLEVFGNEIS
T1 sequence (P19793 1-462 partner): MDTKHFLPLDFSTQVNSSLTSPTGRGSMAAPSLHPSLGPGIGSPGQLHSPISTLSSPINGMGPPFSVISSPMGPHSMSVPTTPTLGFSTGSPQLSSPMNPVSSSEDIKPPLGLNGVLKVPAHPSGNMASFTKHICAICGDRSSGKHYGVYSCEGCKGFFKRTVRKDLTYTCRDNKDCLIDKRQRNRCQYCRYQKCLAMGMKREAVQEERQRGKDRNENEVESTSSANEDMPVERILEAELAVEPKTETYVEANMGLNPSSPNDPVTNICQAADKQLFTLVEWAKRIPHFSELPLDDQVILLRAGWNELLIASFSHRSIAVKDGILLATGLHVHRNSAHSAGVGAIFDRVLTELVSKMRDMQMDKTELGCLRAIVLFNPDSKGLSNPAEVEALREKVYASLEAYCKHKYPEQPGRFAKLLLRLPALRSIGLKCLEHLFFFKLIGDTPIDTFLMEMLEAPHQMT
Description: (1) A reporter vector was constructed by inserting the sequence of the promoter region of human ostocalcin gene into the upstream of luciferase gene using a pGL3 vector (Promega Corporation), wherein the promoter region of the human ostocalcin gene was cloned using cDNA acquired from HOS cells (purchased from ATCC) by a method known in the literature (Ozono et al., The Journal of Biological Chemistry, 265, 21881-21888 (1990)). The expression vector was constructed by inserting a DNA sequence, which encodes human VDR and human RXR, into a pcDNA3 vector (Invitrogen Corporation). The HOS cells were incubated in a DMEM medium containing 10% FBS under conditions of 37° C. and 5% CO2, and subcultured every 2 or 3 days.
(2) The cells which had been subcultured were recovered by centrifugation and were suspended in serum- and phenol red-free DMEM medium in a density of 4×10^5 cells/mL. This was seeded on a 96-well plate in an amount of 0.1 mL/well. To this system, various vectors described in (1) were added in an amount of 0.05 mL per well using Lipofectamine 2000 (Invitrogen Corporation). After incubation at 37° C. for 3 hours, 2 μl each of ethanol solutions of the test compounds of various concentrations or ethanol as a control was added to each well. After incubation at 37° C. for 24 hours, the medium was removed, the cells were washed once with PBS(−), and thereafter luciferase activity was measured by using a luminometer (Berthold Technologies GmbH & Co. KG) using Dual-Glo Luciferase Assay Kit (Promega Corporation).

VDR = target: T2, VDR (Homo sapiens, UniProt P11473); test: Evaluation of VDR affinity (PolarScreen Vitamin D Receptor Competitor Assay, fluorescence polarization)
T2 sequence (P11473 1-427): T1 sequence (P11473 1-427)
Description: VDR was evaluated by using a commercial measurement and evaluation kit, for example, “PolarScreen Vitamin D Receptor Competitor Assay, Red, Cat. No. PV4569” marketed by Invitrogen Corporation, according to the following procedure.
Solutions of the compounds were added to two wells each of a 384-well black plate in 10 μl aliquots. To each well, VDR/Fluoromone VDR Complex included in the kit was added in 10 μl aliquots and allowed to react at room temperature for 2 hours.

Structure (SMILES): C=C1/C(=C\C=C2/CCC[C@]3(C)[C@@H]([C@H](C)CC#CC(C)(C)O)CC[C@@H]23)C[C@@H](O)[C@H](OCCC(=O)OC(C)C)[C@@H]1O [Compound C-5, (5Z,7E)-(1R,2S,3R,20R)-2-(2-(1-methyl)ethoxycarbonylethoxy)-23-yne-9,10-seco-5,7,10(19)-cholestatriene-1,3,25-triol]
- Bone mineral density ([1]; dose 17 ng/kg): 0.2316 ± 0.0134 g/mL
- Bone mineral density ([1]; dose 50 ng/kg): 0.2354 ± 0.0126 g/mL
- Serum calcium value ([2]; dose 17 ng/kg): 9.60 ± 0.15 mg/dL
- Serum calcium value ([2]; dose 50 ng/kg): 10.10 ± 0.21 mg/dL

Structure (SMILES): C=C1/C(=C\C=C2/CCC[C@]3(C)[C@@H]([C@H](C)CC#CC(C)(C)O)CC[C@@H]23)C[C@@H](O)[C@H](OCCC(=O)OCOC(=O)C(C)(C)C)[C@@H]1O [Compound C-7, (5Z,7E)-(1R,2S,3R,20R)-2-((t-butylcarbonyloxy)methoxycarbonylethoxy)-23-yne-9,10-seco-5,7,10(19)-cholestatriene-1,3,25-triol]
- Bone mineral density ([1]; dose 6 ng/kg): 0.2322 ± 0.0092 g/mL
- Bone mineral density ([1]; dose 13 ng/kg): 0.2548 ± 0.0143 g/mL
- Serum calcium value ([2]; dose 6 ng/kg): 9.83 ± 0.22 mg/dL
- Serum calcium value ([2]; dose 13 ng/kg): 10.07 ± 0.22 mg/dL

Structure (SMILES): C=C1C(=CC=C2CCCC3(C)C2CCC3C(C)CC#CC(O)(CC)CC)CC(O)C(OCCC(=O)O)C1O [Compound F-1, (5Z,7E)-(1R,2S,3R,20R)-2-(2-carboxyethoxy)-26,27-dimethyl-23-yne-9,10-seco-5,7,10(19)-cholestatriene-1,3,25-triol]
- pEC50 (human VDR): ≥ 10.70
- Bone mineral density ([1]; dose 6 ng/kg): 0.2366 ± 0.0139 g/mL

Structure (SMILES): C=C1C(=CC=C2CCCC3(C)C2CCC3C(C)CC#CC(C)(C)O)CC(O)C(OCCC(=O)O)C1O [Compound C-1, (5Z,7E)-(1R,2S,3R,20R)-2-(2-carboxyethoxy)-23-yne-9,10-seco-5,7,10(19)-cholestatriene-1,3,25-triol]
- pEC50 (human VDR): ≥ 9.70
- Bone mineral density ([1]; dose 4 ng/kg): 0.2223 ± 0.0118 g/mL
- Bone mineral density ([1]; dose 10 ng/kg): 0.2400 ± 0.0065 g/mL
- VDR affinity (in words) (VDR): very strong VDR affinity

Structure (SMILES): C=C1C(=CC=C2CCCC3(C)C2CCC3C(C)CC#CC(C)(C)O)CC(O)C(OCCC(=O)OC)C1O [Compound C-2, (5Z,7E)-(1R,2S,3R,20R)-2-(2-methoxycarbonylethoxy)-23-yne-9,10-seco-5,7,10(19)-cholestatriene-1,3,25-triol]
- pEC50 (human VDR): ≥ 9.70
- Bone mineral density ([1]; dose 6 ng/kg): 0.2196 ± 0.0177 g/mL
- Bone mineral density ([1]; dose 13 ng/kg): 0.2308 ± 0.0081 g/mL

Structure (SMILES): C=C1/C(=C\C=C2/CCC[C@@]3(C)C2CC[C@@H]3[C@H](C)CC#CC(C)(C)O)C[C@@H](O)[C@H](OCC2(C(=O)O)CC2)[C@@H]1O (stereo partly drawn) [Compound E-1, (5Z,7E)-(1R,2S,3R,20R)-2-((2-carboxy-2,2-ethano)ethoxy)-23-yne-9,10-seco-5,7,10 (19)-cholestatriene-1,3,25-triol]
- pEC50 (human VDR): ≥ 9.70

Structure (SMILES): C=C1C(=CC=C2CCCC3(C)C2CCC3C(C)CC#CC2(O)CCCC2)CC(O)C(OCCC(=O)O)C1O [Compound F-2, (5Z,7E)-(1R,2S,3R,20R)-2-(2-carboxyethoxy)-26,27-nor-25-cyclopentyl-23-yne-9,10-seco-5,7,10(19)-cholestatriene-1,3,25-triol]
- pEC50 (human VDR): ≥ 10.70

Structure (SMILES): C=C1C(=CC=C2CCCC3(C)C2CCC3C(C)CC#CC(C)(C)O)CC(O)C(CC(C)C(=O)OC(C)(C)C)C1O [Compound D-6, (5Z,7E)-(1S,2S,3R,20R)-2-(2-(1,1-dimethyl)ethoxycarbonylpropyl)-23-yne-9,10-seco-5,7,10(19)-cholestatriene-1,3,25-triol]
- Bone mineral density ([1]; dose 50 ng/kg): 0.2365 ± 0.0204 g/mL
- Serum calcium value ([2]; dose 50 ng/kg): 9.76 ± 0.29 mg/dL

Structure (SMILES): C=C1C(=CC=C2CCCC3(C)C2CCC3C(C)CC#CC(C)(C)O)CC(O)C(CCCC(=O)O)C1O [Compound D-1]
- pEC50 (human VDR): ≥ 10.70
- Bone mineral density ([1]; dose 6 ng/kg): 0.2211 ± 0.0175 g/mL
- Bone mineral density ([1]; dose 13 ng/kg): 0.2360 ± 0.0143 g/mL
- VDR affinity (in words) (VDR): very strong VDR affinity

Structure (SMILES): C=C1/C(=C\C=C2/CCC[C@]3(C)[C@@H]([C@H](C)CCCC(C)(C)O)CC[C@@H]23)C[C@@H](O)[C@H](OCCCO)[C@@H]1O [2α-(3-hydroxypropyl)oxy-1α,25-dihydroxyvitamin D3, reference compound]
- Bone mineral density ([1]; dose 10 ng/kg): 0.2269 ± 0.0161 g/mL
- Bone mineral density ([1]; dose 25 ng/kg): 0.2473 ± 0.0157 g/mL
- Serum calcium value ([2]; dose 10 ng/kg): 10.30 ± 0.37 mg/dL
- increase in the serum calcium value ([2]; dose 25 ng/kg necessary for bone mineral density equal to or greater than sham group): ≥ 1 mg/dL
- Serum calcium value ([2]; dose 25 ng/kg): 11.20 ± 0.20 mg/dL
